Consider 1 compound from patent publication US12723233B2, “Media and methods for differentiating natural killer cells” (STEMCELL Technologies Canada Inc., priority 2018, dated 2026).

Data set [1] deals with sorted day 14 populations of NK cell progenitors. Kind of data set: Differentiation of sorted day 14 NK cell progenitor subsets to CD56+ NK cells, cultured another 14 days. It is filed as cell-based, Human. The source says:
CD34^+ CB cells were isolated and cultured as described in Example 1 up to the day 14 time point. NK cell progenitors derived from CB CD34^+ HSPCs after 14 days of culture were stained, essentially as described in Example 3, with antibodies against markers CD5, CD7, and CD56. CD56^− cells were gated and CD7^+CD5^−, CD7^+CD5^+, CD5^−CD7^− cells were sorted using a BD FACSAria Fusion fluorescence-activated cell sorter. To investigate which subset of the day 14 population of NK cell progenitors is targeted by pyrimidoindole compounds, the CD7^+CD5^−, CD7^+CD5^+ and CD7^−CD5^− sorted populations were each cultured for another 14 days in NK Cell Differentiation medium without or with UM729. CD34^+ CB cells were isolated and cultured as described in Example 1 up to the day 14 time point. NK cell progenitors derived from CB CD34^+ HSPCs after 14 days of culture were stained, essentially as described in Example 3, with antibodies against markers CD5, CD7, CD34, and CD56. CD56^− cells were gated and […], and CD34^− CD7^+CD5^− and CD34^−CD7^+CD5^+ were sorted using a BD FACSAria Fusion fluorescence-activated cell sorter. CD7 cells were sorted as a negative control. To investigate which subset of the day 14 population of NK cell progenitors is targeted by pyrimidoindole compounds, the CD34^+CD7^+CD5^− and CD34^+CD7^+CD5^+, and CD34^−CD7^+CD5^− and CD34^− CD7^+CD5^+ sorted populations were each cultured for another 14 days in NK Cell Differentiation medium with or without UM729.

The next data set relates to K562 target cells. Kind of data set: Calcein AM release cytotoxicity assay of differentiated CD56+ NK cells. It is filed as cell-based. The note with it: cells differentiated in the presence of 1 μM UM729, day 28; effector to target ratio 5:1, 4 hours. The method, then:
CD56^+ NK cells were differentiated as described in Examples 1 and 2 in the presence of 1 μM UM729 and analyzed on day 28 for their cytotoxicity toward K562 target cells.
For the cytotoxicity assay, the in vitro generated CD56^+ NK cells were co-cultured with Calcein AM labeled K562 cells for 4 hours at a ratio of 5:1 for effector cells (NK cells) to target cells (K562 cells), and supernatants were analysed for the release of fluorescent Calcein from killed target cells.
Peripheral blood (PB) NK cells and Monocytes isolated using EasySep™ (STEMCELL Technologies, Catalogue #17955 and 19359, respectively) were also co-cultured with labelled K562 cells as positive and negative controls, respectively, at the same ratios described above.
To detect spontaneous release of calcein, control wells containing only calcein AM-labeled K562 target cells were set up. The labeled K562 cells were treated with 1% Triton™ X-100 to measure maximum release. After incubation, plates were centrifuged at 500×g for 5 minutes and 100 μL of supernatant was transferred to black plates and analyzed using a SpectraMax® microplate reader (excitation 485 nm/emission 530 nm). Results are expressed as % specific lysis: [(test release−spontaneous release)×100]/(maximum release−spontaneous release).

Data set [2] relates to differentiated CD56+ NK cells. Kind of data set: Flow cytometry of NK cell, maturity and T cell markers on differentiated CD56+ NK cells at day 28. It is filed as cell-based, Human. The method, then: CD56^+ NK cells were differentiated as described in Examples 1 and 2 in the presence of 1 μM UM729 and analyzed on day 28 by flow cytometry for the expression of known NK cell markers. Cells were stained with fluorescence-conjugated antibodies against indicated NK cell markers for 15 min at 4° C. Non-specific binding was blocked using FcR blocker and 5% human or rat serum. Dead cells were excluded by light scatter profile and 7-AAD or DRAQ7 staining. Prepared samples were analyzed by flow cytometry.
CD56^+ NK cells were differentiated as described in Examples 1 and 2 in the presence of 1 μM UM729 and analyzed on day 28 by flow cytometry for the expression of known NK cell markers. The cells were stained for the markers described in this Example essentially as described in Example 3. Staining for KIR molecules was performed using a combination of two clones for the antibody, 180704 and HP-MA4, as each recognizes a distinct subset of KIR molecules. Dead cells were excluded by light scatter profile and 7-AAD or DRAQ7 staining.
Production of IFNγ by the differentiated CD56^+ NK cells was also measured. For IFNγ intracellular staining, differentiated CD56^+ NK Cells were stimulated with PMA/Ionomycin for 2 hours. Brefeldin A was added and the cells were incubated for another 2 hours. The cells were harvested and stained for CD56 and Zombie NIR viability dye then fixed, permeabilized and stained for intracellular IFNγ.
CD56^+ NK cells were differentiated as described in Examples 1 and 2 in the presence of pyrimidoindole compounds and analyzed on day 28 by flow cytometry for the expression of a T cell marker. The analyzed cells were stained for CD3 essentially as described in Example 3. Dead cells were excluded by light scatter profile and 7-AAD or DRAQ7 staining.

Where [3] appears, read: sorted CD7+CD5+ cells, 14 days with UM729, three donors.
Setting [4] is: sorted CD7+CD5− cells, 14 days with UM729, three donors.
Setting [5] is: sorted CD34−CD7+CD5+ cells, 14 days with UM729.
[6] abbreviates: sorted CD34−CD7+CD5− cells, 14 days with UM729.
The mark [7] stands for this setting: cells differentiated in the presence of 1 μM UM729, day 28.

Each structure is given as a SMILES string. Entries after “also recorded” stand apart in the source; their conditions may differ.

For the compound `COC(=O)c1ccc2c(c1)[nH]c1ncnc(NCCCN3CCCCC3)c12` [UM729, methyl 4-((3-(piperidin-1-yl)propyl)amino)-9H-pyrimido[4,5-b]indole-7-carboxylate], in data set [1] (setting [3]), the “Frequency of NK cells compared to culture conditions lacking UM729” value is reported as “higher” and the “Yield of NK cells compared to culture conditions lacking UM729” value is on record as “higher”. In addition, in data set [1] (setting [4]), the “Frequency of NK cells compared to culture conditions lacking UM729” value is listed as “higher” and the “Yield of NK cells compared to culture conditions lacking UM729” value is on record as “higher”. Also, the “Expansion and differentiation to NK cells” value in data set [1] (sorted CD7−CD5− cells, presence or absence of UM729) was “did not expand and differentiate to NK cells”. In data set [1] (sorted CD34+CD7+CD5− and CD34+CD7+CD5+ cells, 14 days with UM729), the “Responsiveness of CD34+ NK progenitor cell subsets to UM729” value is recorded as “do not appear responsive”. Moreover, in data set [1] (setting [5]), the “Frequency of NK cells compared to culture conditions lacking UM729” value is “higher” and the “Yield of NK cells compared to culture conditions lacking UM729” value was “higher”. In data set [1] (setting [6]), the “Frequency of NK cells compared to culture conditions lacking UM729” value is “higher” and the “Yield of NK cells compared to culture conditions lacking UM729” value is listed as “higher”. Moreover, the “Cytotoxicity (killing ability) of differentiated NK cells toward K562 target cells” value with K562 target cells is “able to kill K562 target cells”. For the same compound, in data set [2] (setting [7]), the “Analyzed cells co-expressing CD56 and CD16” value is given as “approximately 17%”; the “Analyzed cells co-expressing CD56 and CD94” value was “approximately 18%”; the “Analyzed cells co-expressing CD56 and KIR” value is given as “approximately 10%”; the “Analyzed cells co-expressing CD56 and NKG2D” value is reported as “approximately 50%”. Besides, in data set [2] (setting [7]), the “Analyzed cells co-expressing CD56 and NKp30” value is given as “approximately 80%”; the “Analyzed cells co-expressing CD56 and NKp44” value is listed as “approximately 80%”; the “Analyzed cells co-expressing CD56 and NKp46” value is listed as “approximately 70%”. Moreover, the “Differentiated CD56+ NK cells expressing intracellular IFNγ upon stimulation” value in data set [2] (cells differentiated in the presence of 1 μM UM729, PMA/Ionomycin 2 hours, then Brefeldin A 2 hours) is recorded as “approximately 58%”. In addition, the “Expression of CD3 among differentiated cells” value in data set [2] (cord blood sample of a second donor, 1 μM UM729, day 28) is given as “virtually absent; also recorded: do not express CD3”.
